Reference: publication PMC8571951, “An activity‐based bioprobe differentiates a novel small molecule inhibitor from a LOXL2 antibody and provides renewed promise for anti‐fibrotic therapeutic strategies” (Clinical and Translational Medicine, 2021)

Biological target: T1, LOXL2 (Homo sapiens, UniProt Q9Y4K0)
T1 sequence (Q9Y4K0 26-774): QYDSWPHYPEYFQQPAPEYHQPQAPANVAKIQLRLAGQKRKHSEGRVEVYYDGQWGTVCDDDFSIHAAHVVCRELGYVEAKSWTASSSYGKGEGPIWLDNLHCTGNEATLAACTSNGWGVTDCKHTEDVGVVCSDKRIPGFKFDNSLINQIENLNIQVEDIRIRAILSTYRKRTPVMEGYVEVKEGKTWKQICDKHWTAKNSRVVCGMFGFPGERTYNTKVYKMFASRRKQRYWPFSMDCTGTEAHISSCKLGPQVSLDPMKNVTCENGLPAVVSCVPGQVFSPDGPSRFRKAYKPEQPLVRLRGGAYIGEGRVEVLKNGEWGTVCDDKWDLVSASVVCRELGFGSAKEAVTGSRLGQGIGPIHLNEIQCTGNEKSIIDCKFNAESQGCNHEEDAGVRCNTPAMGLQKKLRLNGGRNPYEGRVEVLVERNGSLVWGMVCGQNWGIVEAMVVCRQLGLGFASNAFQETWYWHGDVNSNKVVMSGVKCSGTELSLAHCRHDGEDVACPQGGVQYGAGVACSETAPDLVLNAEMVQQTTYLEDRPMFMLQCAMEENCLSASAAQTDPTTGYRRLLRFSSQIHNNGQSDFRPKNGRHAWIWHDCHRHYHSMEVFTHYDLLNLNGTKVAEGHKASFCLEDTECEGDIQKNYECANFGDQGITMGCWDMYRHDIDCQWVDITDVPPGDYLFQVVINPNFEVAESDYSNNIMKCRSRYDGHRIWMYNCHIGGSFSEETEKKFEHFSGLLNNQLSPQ
Test: Standard Amplex Red assay, rh LOXL2 (putrescine substrate)
Assay type: biochemical
Conditions: for IC50: Amplex Red assay, 30 min pre-incubation
Text: FIGURE 1 Characteristics of the activity‐based probe (ABP) PXS‐5878. (A) Chemical structure of PXS‐5878, with functional subunits denoted with different colours. The fluoroallylamine moiety (blue) was designed to interact with the lysine tyrosylquinone (LTQ) co‐factor within the lysyl oxidase active sites. An extended linker (green) was incorporated to provide optimal separation between the reactive functional group and the tag, avoiding unfavourable steric hindrance. Biotin was selected as a tag, with higher sensitivity found to be achieved using a double tag (red), resulting in PXS‐5878 as the preferred ABP. (B) Concentration‐dependent inhibition of recombinant human (rh) lysyl oxidase‐like 1‐4 (LOXL1‐4) and native bovine LOX in a standard Amplex Red assay with 30 min pre‐incubation; n = 3–4 independent experiments, standard error of mean (SEM). Native bovine LOX was used as a surrogate for human LOX as both enzymes have similar pharmacology for fluoroallylamines.[2], [9] (C) Irreversible nature of PXS‐5878 enzyme inhibition confirmed using a jump dilution assay. Enzyme (rh LOXL1, rh LOXL2 or LOXL3) was pre‐incubated with 10 × IC50 of PXS‐5878 for 30 min, then diluted 100x and remaining activity assessed by Amplex Red assay. […] Each value is an average of three experiments. (D) Schematic representation of the assay development to detect lysyl oxidase activity by PXS‐5878 using a direct enzyme‐linked assay with lysyl oxidases as the target analyte. HRP: horseradish peroxidase; TMB: 3,3′,5,5′‐tetramethylbenzidine, a chromogenic substrate. After target analyte is bound to the plate, PXS‐5878 was incubated for 60 min in the presence or absence of a pan‐LOX inhibitor (β‐aminopropionitrile, [BAPN]) and streptavidin‐HRP is then added. After incubation the plate is washed and TMB added to measure the amount of bound ABP/streptavidin/HRP. This leads to a high signal. Application of BAPN to block the enzymatic site prevents PXS‐5878 from binding, and it is consequently washed off the plate, resulting in a low signal. In the final Simoa® assay, the enzyme is bound by the antibody to the bead. (E) Detection of enzymatically active lysyl oxidases by PXS‐5878. rh LOXL1, LOXL2 or LOXL3 were immobilised on the surface of a microtiter plate and processed as described in (D). Optical density in the absence of the pan‐LOX inhibitor BAPN (high signal) was divided by the value in the presence of BAPN (low signal). Low signal was 1.81 ± 0.77 (n = 8) times larger than blank controls. Two independent replicates were performed (total n = 4–5 for each enzyme).
Small molecule, selective LOXL2 (PXS‐5338, Figure S3) or pan‐LOX inhibitors compete with substrate but ultimately occupy the enzymatic pocket, irrespective of whether the substrate is small (e.g., putrescine) or large (e.g., collagen). […] Further studies with AB0023 were therefore limited to 300 nM.
FIGURE 2 Characteristics of PXS‐5338 and inhibition of lysyl oxidase‐like 2 (LOXL2) enzymatic activity in vitro and in vivo. (A) Chemical structure of PXS‐5338. […] (B) Tissue levels of PXS‐5338 measured 1 and 4 h after a single oral dose of 30 mg/kg in the rat. […] Average data from three different animals. (C) Concentration‐dependent inhibition of native human LOX and rh LOXL1‐4 in a standard Amplex Red assay with 30 min pre‐incubation; n ≥3 independent experiments, standard error of mean (SEM). (D) PXS‐5338 inhibits rh LOXL2 in a time‐dependent manner, with increasing potency observed upon longer incubation with the enzyme. […]

| Change of potency with increasing substrate (putrescine) concentration (substrate added simultaneously with inhibitor) | IC50 [nM] | Concentration at which full inhibition of rh LOXL2 is achieved (standard assay using putrescine or collagen as substrate) | Pre-incubation time after which inhibition of rh LOXL2 is complete (varying pre-incubation times, putrescine as substrate) [h] | SMILES |
| --- | --- | --- | --- | --- |
| potency of PXS-5338 decreases | – | – | – | CC(C)c1c(Cc2ccc(S(C)(=O)=O)nc2)c2ncccc2n1C/C(F)=C/CN [PXS-5338] |
| – | 203 | – | – | NC/C=C(\F)CS(=O)(=O)c1cccc(Cn2cc(-c3cc(OCCCc4cn(CCCCC[C@@H]5SC[C@@H]6NC(=O)N[C@@H]65)nn4)cc(OCCCc4cn(CCCCC[C@@H]5SC[C@@H]6NC(=O)N[C@@H]65)nn4)c3)nn2)c1 [PXS-5878] |
| – | 35 | above 300 nM | 2 | CC(C)c1c(Cc2ccc(S(C)(=O)=O)nc2)c2ncccc2n1C/C(F)=C/CN [PXS‐5338] |
